Measured values published in US9707305B2, “Formulas for diagnosing and treating hormone-dependent cancers and cancers of the organs responsible for steroid hormone synthesis” (Commissariat à l'énergie atomique et aux énergies …, priority 2011, dated 2017).

Experiment: Biodistribution of the nano-emulsion of Example 1.1 (radioactivity and fluorescence per organ)
Format: in vivo
Experimental: In the following examples, the radioactivity was counted with the TRiCarb Counter (Ref: Packard, Liquid Scintillation Analyzers; Models 2200CA).
Fluobeam 700 (Fluoptics) is the apparatus with which the whole of the organs from the biodistribution were analyzed in fluorescence as well as the one with which the biodistribution kinetics of the nano-emulsions were established in vivo. This imaging system allows viewing of the fluorescence in spectral bands from 700 to 850 nm for a 650 nm excitation. The apparatus consists of an electric case containing the laser of class 3B, its power supply and an optical head containing the CCD camera.
The nano-emulsions of Example 1 were injected into FVB female and male mice. As a comparison, a mixture of three tracers ([3H]CHE, [14C]CO and DiD) (not formulated as a nano-emulsion) was injected in order to observe the distribution of the tracers in the absence of droplets being used as a distribution carrier.
Tables 6 to 14 provide the biodistribution results of each tracer ([3H]CHE, [14C]CO and DiD) expressed as a percentage of the dose injected per gram of tissue (or [3H]CHE and [14C]CO) or as fluorescence intensity (for DiD) depending on the organ of the mouse, 15 minutes (Table 6), 2 hours (Table 7), 4 hours (Table 8), 6 hours (Table 9), 16 hours (Table 10), 24 hours (Table 11), 72 hours (Table 12), 120 hours (Table 13) and 168 hours (Table 14), after injection into an FVB female mouse of the nano-emulsion of Example 1.1. (nano-emulsion according to the invention comprising the three tracers ([3H]CHE, [14C]CO and DiD).

[1] = 15 min after injection of nano-emulsion of Example 1.1, FVB female mouse
[2] = 2 h after injection of nano-emulsion of Example 1.1, FVB female mouse
[3] = 4 h after injection of nano-emulsion of Example 1.1, FVB female mouse
[4] = 16 h (Table 9 head) after injection of nano-emulsion of Example 1.1, FVB female mouse
[5] = 24 h (Table 10 head) after injection of nano-emulsion of Example 1.1, FVB female mouse
[6] = 48 h (Table 11 head) after injection of nano-emulsion of Example 1.1, FVB female mouse

CCCCCCCC/C=C\CCCCCCC[14C](=O)O[C@H]1CC[C@@]2(C)C(=CC[C@H]3[C@@H]4CC[C@H]([C@H](C)CCCC(C)C)[C@@]4(C)CC[C@@H]32)C1 [[14C]CO, cholesteryl oleate]
biodistribution, Adrenal glands (MEAN) [1]: 10.18 % of injected dose per gram of
biodistribution, Brain (MEAN) [1]: 0.499 % of injected dose per gram of
biodistribution, Fat (MEAN) [1]: 1.15 % of injected dose per gram of
biodistribution, Heart (MEAN) [1]: 8.676 % of injected dose per gram of
biodistribution, Intestine (MEAN) [1]: 1.75 % of injected dose per gram of
biodistribution, Kidney (MEAN) [1]: 4.20 % of injected dose per gram of
biodistribution, Liver (MEAN) [1]: 8.86 % of injected dose per gram of
biodistribution, Lung (MEAN) [1]: 3.92 % of injected dose per gram of
biodistribution, Muscle (MEAN) [1]: 0.744 % of injected dose per gram of
biodistribution, Ovary (MEAN) [1]: 4.59 % of injected dose per gram of
biodistribution, Pancreas (MEAN) [1]: 1.262 % of injected dose per gram of
biodistribution, Salivary glands (MEAN) [1]: 1.057 % of injected dose per gram of
biodistribution, Spleen (MEAN) [1]: 3.58 % of injected dose per gram of
biodistribution, Uterus (MEAN) [1]: 0.93 % of injected dose per gram of
biodistribution, Adrenal glands (MEAN) [2]: 18.50 % of injected dose per gram of
biodistribution, Brain (MEAN) [2]: 0.29 % of injected dose per gram of
biodistribution, Fat (MEAN) [2]: 3.85 % of injected dose per gram of
biodistribution, Heart (MEAN) [2]: 4.41 % of injected dose per gram of
biodistribution, Intestine (MEAN) [2]: 2.33 % of injected dose per gram of
biodistribution, Kidneys (MEAN) [2]: 3.91 % of injected dose per gram of
biodistribution, Liver (MEAN) [2]: 19.41 % of injected dose per gram of
biodistribution, Lung (MEAN) [2]: 4.42 % of injected dose per gram of
biodistribution, Muscle (MEAN) [2]: 0.48 % of injected dose per gram of
biodistribution, Ovary (MEAN) [2]: 22.72 % of injected dose per gram of
biodistribution, Pancreas (MEAN) [2]: 1.68 % of injected dose per gram of
biodistribution, Salivary glands (MEAN) [2]: 1.74 % of injected dose per gram of
biodistribution, Spleen (MEAN) [2]: 2.87 % of injected dose per gram of
biodistribution, Uterus (MEAN) [2]: 2.21 % of injected dose per gram of
biodistribution, Adrenal glands (MEAN) [3]: 21.37 % of injected dose per gram of
biodistribution, Brain (MEAN) [3]: 0.23 % of injected dose per gram of
biodistribution, Fat (MEAN) [3]: 1.46 % of injected dose per gram of
biodistribution, Heart (MEAN) [3]: 3.75 % of injected dose per gram of
biodistribution, Intestine (MEAN) [3]: 1.80 % of injected dose per gram of
biodistribution, Kidney (MEAN) [3]: 2.27 % of injected dose per gram of
biodistribution, Liver (MEAN) [3]: 13.69 % of injected dose per gram of
biodistribution, Lungs (MEAN) [3]: 3.09 % of injected dose per gram of
biodistribution, Muscle (MEAN) [3]: 0.38 % of injected dose per gram of
biodistribution, Ovary (MEAN) [3]: 25.14 % of injected dose per gram of
biodistribution, Pancreas (MEAN) [3]: 1.17 % of injected dose per gram of
biodistribution, Salivary glands (MEAN) [3]: 1.47 % of injected dose per gram of
biodistribution, Spleen (MEAN) [3]: 1.97 % of injected dose per gram of
biodistribution, Uterus (MEAN) [3]: 1.39 % of injected dose per gram of
biodistribution, Adrenal glands (MEAN) [4]: 30.64 % of injected dose per gram of
biodistribution, Brain (MEAN) [4]: 0.13 % of injected dose per gram of
biodistribution, Fat (MEAN) [4]: 8.06 % of injected dose per gram of
biodistribution, Heart (MEAN) [4]: 2.00 % of injected dose per gram of
biodistribution, Intestine (MEAN) [4]: 2.53 % of injected dose per gram of
biodistribution, Kidney (MEAN) [4]: 1.75 % of injected dose per gram of
biodistribution, Liver (MEAN) [4]: 8.68 % of injected dose per gram of
biodistribution, Lungs (MEAN) [4]: 2.80 % of injected dose per gram of
biodistribution, Muscle (MEAN) [4]: 1.59 % of injected dose per gram of
biodistribution, Ovary (MEAN) [4]: 21.45 % of injected dose per gram of
biodistribution, Pancreas (MEAN) [4]: 1.19 % of injected dose per gram of
biodistribution, Salivary glands (MEAN) [4]: 2.02 % of injected dose per gram of
biodistribution, Spleen (MEAN) [4]: 1.89 % of injected dose per gram of
biodistribution, Uterus (MEAN) [4]: 2.76 % of injected dose per gram of
biodistribution, Adrenal glands (MEAN) [5]: 13.05 % of injected dose per gram of
biodistribution, Brain (MEAN) [5]: 0.11 % of injected dose per gram of
biodistribution, Fat (MEAN) [5]: 2.28 % of injected dose per gram of
biodistribution, Heart (MEAN) [5]: 1.31 % of injected dose per gram of
biodistribution, Intestine (MEAN) [5]: 1.22 % of injected dose per gram of
biodistribution, Kidney (MEAN) [5]: 1.03 % of injected dose per gram of
biodistribution, Liver (MEAN) [5]: 5.39 % of injected dose per gram of
biodistribution, Lung (MEAN) [5]: 1.30 % of injected dose per gram of
biodistribution, Muscle (MEAN) [5]: 1.01 % of injected dose per gram of
biodistribution, Ovary (MEAN) [5]: 9.58 % of injected dose per gram of
biodistribution, Pancreas (MEAN) [5]: 0.67 % of injected dose per gram of
biodistribution, Salivary glands (MEAN) [5]: 1.76 % of injected dose per gram of
biodistribution, Spleen (MEAN) [5]: 1.10 % of injected dose per gram of
biodistribution, Uterus (MEAN) [5]: 0.96 % of injected dose per gram of
biodistribution, Adrenal glands (MEAN) [6]: 10.83 % of injected dose per gram of
biodistribution, Brain (MEAN) [6]: 0.11 % of injected dose per gram of
biodistribution, Fat (MEAN) [6]: 3.46 % of injected dose per gram of
biodistribution, Heart (MEAN) [6]: 0.87 % of injected dose per gram of
biodistribution, Intestine (MEAN) [6]: 1.01 % of injected dose per gram of
biodistribution, Kidney (MEAN) [6]: 0.77 % of injected dose per gram of
biodistribution, Liver (MEAN) [6]: 1.53 % of injected dose per gram of
biodistribution, Lungs (MEAN) [6]: 1.28 % of injected dose per gram of
